Measured values as given in publication PMC6214143, “Oncotoxic Properties of Serotonin Transporter Inhibitors and 5-HT1A Receptor Ligands” (International Journal of Molecular Sciences, 2018).
Structures can show the parent of a compound that is named as a salt.

Legend:
[1] = design: method as in PMID 7705455; settings: rats, s.c.; cited from earlier work
PC-3 cells [2] = test: MTT cell survival assay, PC-3 cells; type: cell-based, human; settings: PC-3 cells
Description: (§1) The effects of the test compounds on the survival of PC-3, SH-SY5Y, Balb/c 3T3 and HEK293 cells was measured with the aid of the 3-(4,5-dimethylthiazol-2-yl)-2,5-diphenyltetrazolium bromide (MTT) assay. The cells were cultured in 96-well plates (100 μL/well) for 72 h. The optimized initial densities were the following: for PC-3—60,000 cells/mL, SH-SY5Y and Balb/c 3T3—50,000 cells/mL.
(§2) After 20 h preincubation and evaluation of the uniformity of cell growth, the medium was aspirated, and the respective solutions of the substances were added to the culture medium. Control cells were only treated the solvent used for the compounds and medium alone.
(§3) MTT (3-(4,5-dimethylthiazol-2-yl)-2,5-diphenyltetrazolium bromide) is reduced by intracellular dehydrogenase, which is present only in live cells (mitochondria), to purple, water-insoluble formazan. After it is dissolved, formazan absorbance of the resulting solution is directly proportional to the number of living cells in culture.
(§4) After appropriate incubation, the culture medium was removed. Next, 50 μL of MTT solution (0.5 mg/mL) diluted in PBS to 0.5 mg/mL was added to each well. […] Then, the precipitated formazan was dissolved by the addition of 200 μL isopropanol. […] The plates were sealed to reduce evaporation before incubation. The test was performed in three to five independent experiments with four times the measured concentration tested. The cell survival percentage was determined as % of controls, which were cells treated with the test compound solvent at the highest concentration.

SH-SY5Y cells = test: MTT cell survival assay, SH-SY5Y cells; type: cell-based, human; settings: SH-SY5Y cells
Description: as §1, §2, §3, §4

Balb/c 3T3 cells = test: MTT cell survival assay, Balb/c 3T3 cells (normal reference); type: cell-based, murine; settings: Mus musculus, BALB/c3T3, 72 h
Description: as §1, §2, §3
After appropriate incubation, the culture medium was removed. Next, 50 μL of MTT solution (0.5 mg/mL) diluted in PBS to 0.5 mg/mL was added to each well. The plates were incubated for 3 h at 37 °C. Then, the precipitated formazan was dissolved by the addition of 200 μL isopropanol. After a 24-hour incubation at 4 °C in the dark, the absorbance of the dissolved formazan was measured at 570 nm (the maximum absorption of formazan) and at 690 nm (reference wavelength) using a Power Wave XS microplate spectrophotometer (Bio-Tek, Winooski, VT, USA). The plates were sealed to reduce evaporation before incubation. The test was performed in three to five independent experiments with four times the measured concentration tested. The cell survival percentage was determined as % of controls, which were cells treated with the test compound solvent at the highest concentration.

5-HT1A receptor [3] = target: T1, 5-HT1A receptor (Homo sapiens, UniProt P08908); test: cAMP level (HTRF) in HEK293 cells that overexpress the 5-HT1AR gene; type: cell-based; settings: agonist mode, 1 µM forskolin-stimulated HEK293-5-HT1A cells
T1 construct: EGFP; expressed in transfected cells
T1 sequence (P08908 1-422): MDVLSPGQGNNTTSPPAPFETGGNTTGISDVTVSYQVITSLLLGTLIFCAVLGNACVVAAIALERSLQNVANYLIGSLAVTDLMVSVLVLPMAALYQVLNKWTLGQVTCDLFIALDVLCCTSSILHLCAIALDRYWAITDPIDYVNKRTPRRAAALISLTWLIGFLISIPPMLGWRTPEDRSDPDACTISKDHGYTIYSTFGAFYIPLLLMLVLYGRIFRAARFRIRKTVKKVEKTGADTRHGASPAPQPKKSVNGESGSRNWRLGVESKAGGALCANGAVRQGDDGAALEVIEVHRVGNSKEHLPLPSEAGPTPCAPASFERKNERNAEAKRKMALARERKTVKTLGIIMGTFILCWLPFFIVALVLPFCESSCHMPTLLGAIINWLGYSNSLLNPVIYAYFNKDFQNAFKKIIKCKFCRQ
Description: (§5) The examination of the functional activity read out as cAMP level inhibition and ERK1/2 and Akt1 phosphorylation was performed according to the instructions of the One-plate Cisbio Bioassays cAMP dynamic 2, phospho-ERK (Thr202/Tyr204) and Akt1 phospho- S473 Cellular Assay Kits respectively, using a HEK293 human fibroblast cell line that overexpresses 5-HT1A receptors. […] The cAMP levels in PC-3 cells were determined using 600,000 cells/mL. Receptor activation with the appropriate ligands was carried out for 30 min, and then the cells were lysed. The results were analyzed with GraphPad Prism v 6.0 (GraphPad Software, San Diego, CA, USA) using its in-built functions. Ligand activity was determined using a 4-parameter equation of the dose-response function. […] M.
(§6) All compounds were tested with both agonists and antagonists. To test the response of cAMP to an agonist the cells were activated with forskolin (1 µM) followed by agonist addition. […] Data are an average of minimum three independent experiments in duplicate. The control of specific activity was measured under the same conditions on cells lacking the 5-HT1A receptor. The results were expressed as % of the reference agonist activity. In the antagonist mode 100% of the reference agonist activity (EC80) corresponded to 0% antagonist activity.

5-HT1A receptor [4] = target: T1, 5-HT1A receptor; test: ERK1/2 phosphorylation (HTRF) in HEK293 cells that overexpress the 5-HT1AR gene; type: cell-based; settings: HEK293-5-HT1A cells
Description: as §5, §6

Akt pathway = test: pAkt level (Akt1 phospho-S473 HTRF) in HEK293 cells that overexpress the 5-HT1AR gene; type: cell-based; settings: Homo sapiens
Description: (§7) The examination of the functional activity read out as cAMP level inhibition and ERK1/2 and Akt1 phosphorylation was performed according to the instructions of the One-plate Cisbio Bioassays cAMP dynamic 2, phospho-ERK (Thr202/Tyr204) and Akt1 phospho- S473 Cellular Assay Kits respectively, using a HEK293 human fibroblast cell line that overexpresses 5-HT1A receptors. The measurements were performed in 384-well microtiter plates using 200,000, 1,875,000 or 2,000,000 cells/mL. The cAMP levels in PC-3 cells were determined using 600,000 cells/mL. Receptor activation with the appropriate ligands was carried out for 30 min, and then the cells were lysed. The results were analyzed with GraphPad Prism v 6.0 (GraphPad Software, San Diego, CA, USA) using its in-built functions. Ligand activity was determined using a 4-parameter equation of the dose-response function. The response curves were obtained by plotting the HTRF® ratio (signal ratio 665/620 nm × 10,000) relative to the log concentration of the [compound] M.

PC-3 cells [5] = test: cAMP level in PC-3 prostate cancer cells; type: cell-based; settings: Homo sapiens, 1 µM forskolin
Description: as §7

5-HT1A receptor [6] = settings: cited from earlier work
dopamine D2 receptor = settings: cited from earlier work
[7] = WAY100635 (5 µM), spiperone (5 µM)

Structure (SMILES) | minimal effective dose (MED), reduction of immobility [1] [mg/kg] | IC50 (PC-3 cells [2]; Homo sapiens, MTT, 72 h) [nM] | cytotoxic activity in the presence of WAY100635 and spiperone (PC-3 cells [2]; [7]) | IC50 (SH-SY5Y cells; Homo sapiens, MTT, 72 h) [nM] | cytotoxic activity in the presence of WAY100635 and spiperone (SH-SY5Y cells; [7]) | IC50 (Balb/c 3T3 cells) [nM] | EC50 (5-HT1A receptor [3]) [nM] | EC50 (5-HT1A receptor [4]; agonist mode, read-out: ERK1/2 EC50) [nM] | EC50 (5-HT1A receptor [4]; elevating phosphorylated ERK1/2 levels, read-out: MAPK/ERK1/2 pathway agonist EC50) [nM] | IC50 (Akt pathway) [nM] | EC50 (PC-3 cells [5]) [nM] | IC50 (PC-3 cells [5]; read-out: cAMP biochemical pathway IC50) [nM] | Kd (5-HT1A receptor [6]) [nM] | dopamine D2 receptor properties (dopamine D2 receptor)
CCCN(CCC)[C@@H]1CCc2cccc(O)c2C1 [Compound 8-OH-DPAT, (2R)-(+)-8-Hydroxy-2-(di-n-propylamino)tetralin hydrobromide] | 0.63 | – | – | – | – | – | – | – | – | – | – | – | – | –
COc1ccc2cccc(N3CCN(CCNC(=O)c4ccc(F)cc4)CC3)c2c1.Cl [Compound S14506, 4-Fluoro-N-[2-[4-(7-methoxy-1-naphthalenyl)-1-piperazinyl]ethyl]benzamide hydrochloride, reference compound] | – | 9980 ± 1260 | reversed | 4270 ± 410 | not against neuroblastoma SH-SY5Y cells | 20600 ± 2580 | 0.0254 | 0.062 | 0.093 | 15400 | 320 | 320 | 0.79 ± 0.2 | dopamine D2 receptor antagonist
